{"source": "patent US20240382438A1", "about": "“Calcium Channel Blockers and Methods Thereof” (University of Maryland, Eastern Shore, priority 2023, published 2024)", "key": {"T-type Ca^2+ channels": {"test_system": "T-type Ca^2+ channels", "experiment": "Whole-cell recording of T-type Ca2+ currents in differentiated ND7/23 cells", "format": "cell-based, mouse neuroblastoma and rat dorsal root ganglion cells", "settings": "for Effect on T-type Ca2+ current density: vs non-treated cells", "procedure": "(§1) ND7/23 cells are derived from the fusion of mouse neuroblastoma and rat dorsal root ganglion cells, which generates a more homogeneous sensory neuron-like cell population. ND7/23 cells were purchased from Sigma-Aldrich (RRID:CVCL_4259). Culture and differentiation of ND7/23 cells was performed as previously described. Briefly, ND7/23 cells were cultured in DMEM/F12 culture media (Millipore, Cat. #DF-041-B), supplemented with 0.5% fetal bovine serum (Invitrogen, Cat. #10437010), db-cAMP (1 mM, Sigma-Aldrich, Cat. #D0627), and nerve growth factor (NGF, 50 ng/mL, Sigma-Aldrich, Ca. #N2513). To remove any proliferating cells, cultures were treated with uridine (20 μM, Sigma-Aldrich, Cat. #U3003) and fluorodeoxyuridine (20 μM, Sigma-Aldrich, Cat. #F0503). Cells were maintained in differentiation media without uridine and fluorodeoxyuridin after induction of differentiation. ND7/23 cells were maintained in differentiation media for ≤6 days. HEK 293 cells that were stabled transfected with the human Cav3.2 and Cav3.3 channel subunits were a gift of Dr. E. Perez-Reyes (University of Virginia). Cav3.2 (or Cav3.3)-stabled transfected HEK 293 cells were culture in DMEM/F12 culture media, supplemented with 5% fetal bovine serum, 50 U/mL penicillin and 50 μg/mL streptomycin. ND7/23 and HEK 293 cells were grown in an incubator at 37° C. in the presence of 5% CO2/95% air humidified atmosphere. Cells passaged less than 20 times were used in this work. Cells were grown in poly-D-lysine-coated glass coverslips for electrophysiological recordings.\n(§2) Whole cell recordings were performed as previously described. A Nikon Eclipse Ti inverted microscope equipped with Hoffman optics and epifluorescence filters was used to visualize individual cells. Recordings were performed at room temperature (22-24° C.) using glass electrodes made from thin wall borosilicate glass (3-5 MΩ). For electrophysiological recordings of inward Ca^2+ currents, outward K^+ currents were eliminated by equimolar substitution of K^+ with Cs^+ in the pipette solution, whereas inward Na^+ currents were eliminated by the use of TEA ions in the external solution, which are unable to go through voltage-gated Na^+ channels. The pipette solution consisted of (in mM) CsCl (120), MgCl2(2), HEPES (10), EGTA (10), ATP (1), and GTP (0.1), pH 7.4 with CsOH. The composition of the normal external saline used for measurements of Ca^2+ currents was (in mM): tetraethylammonium chloride (TEACl, 145), CaCl2 (10), MgCl2(1), HEPES (10), and glucose (5), pH 7.4 adjusted with CsOH. Ca^2+ currents were generated by applying a 200-500 ms-depolarizing step to various potentials from a holding potential of −100 mV. The external solution used to measure Na^+ currents contained (in mM) NaCl (145), KCl (5.3), CaCl2 (0.5), MgCl2 (5.7), HEPES (13), and glucose (5), pH 7.4 adjusted with KOH. The composition of the CsCl-pipette solution used to record Na^+ currents was the same describe above. Na^+ currents were generated by applying a 20 ms-depolarizing step to various potentials from a holding potential of −100 mV. To assess drug-evoked changes on specific ionic conductances, current amplitudes were expressed as current densities as previously reported. To assess current densities, cell size was normalized by dividing current amplitudes by cell capacitance. Cell capacitance was determined by integrating the transient current evoked by a 10-mV voltage step from a holding potential of −60 mV.\n(§3) A MULTICLAMP 700A amplifier and PCLAMP software (Axon Instruments) was used to deliver voltage commands and to perform data acquisition and analysis. Pipette offset, whole cell capacitance, and series resistance were compensated automatically with the MultiClamp 700B Commander. Only cells with stable seals and series resistance (≤10 MΩ) were analyzed. Sampling rates were between 5 and 10 kHz. Leak currents were subtracted online using a P/4 protocol. […]"}, "[1]": {"test_system": "voltage-activated Na^+ channels", "experiment": "Whole-cell recording of Na+ currents in differentiated ND7/23 cells", "format": "cell-based, mouse neuroblastoma and rat dorsal root ganglion cells", "settings": "50 μM", "procedure": "as §1\nWhole cell recordings were performed as previously described. A Nikon Eclipse Ti inverted microscope equipped with Hoffman optics and epifluorescence filters was used to visualize individual cells. Recordings were performed at room temperature (22-24° C.) using glass electrodes made from thin wall borosilicate glass (3-5 MΩ). For electrophysiological recordings of inward Ca^2+ currents, outward K^+ currents were eliminated by equimolar substitution of K^+ with Cs^+ in the pipette solution, whereas inward Na^+ currents were eliminated by the use of TEA ions in the external solution, which are unable to go through voltage-gated Na^+ channels. […] To assess drug-evoked changes on specific ionic conductances, current amplitudes were expressed as current densities as previously reported. […] Cell capacitance was determined by integrating the transient current evoked by a 10-mV voltage step from a holding potential of −60 mV.\nA MULTICLAMP 700A amplifier and PCLAMP software (Axon Instruments) was used to deliver voltage commands and to perform data acquisition and analysis. […] Only cells with stable seals and series resistance (≤10 MΩ) were analyzed. […]"}, "human Cav3.2": {"target": "T1, human Cav3.2 (Homo sapiens, UniProt O95180)", "T1 construct": "host or cells: HEK 293", "T1 sequence (O95180 whole entry)": "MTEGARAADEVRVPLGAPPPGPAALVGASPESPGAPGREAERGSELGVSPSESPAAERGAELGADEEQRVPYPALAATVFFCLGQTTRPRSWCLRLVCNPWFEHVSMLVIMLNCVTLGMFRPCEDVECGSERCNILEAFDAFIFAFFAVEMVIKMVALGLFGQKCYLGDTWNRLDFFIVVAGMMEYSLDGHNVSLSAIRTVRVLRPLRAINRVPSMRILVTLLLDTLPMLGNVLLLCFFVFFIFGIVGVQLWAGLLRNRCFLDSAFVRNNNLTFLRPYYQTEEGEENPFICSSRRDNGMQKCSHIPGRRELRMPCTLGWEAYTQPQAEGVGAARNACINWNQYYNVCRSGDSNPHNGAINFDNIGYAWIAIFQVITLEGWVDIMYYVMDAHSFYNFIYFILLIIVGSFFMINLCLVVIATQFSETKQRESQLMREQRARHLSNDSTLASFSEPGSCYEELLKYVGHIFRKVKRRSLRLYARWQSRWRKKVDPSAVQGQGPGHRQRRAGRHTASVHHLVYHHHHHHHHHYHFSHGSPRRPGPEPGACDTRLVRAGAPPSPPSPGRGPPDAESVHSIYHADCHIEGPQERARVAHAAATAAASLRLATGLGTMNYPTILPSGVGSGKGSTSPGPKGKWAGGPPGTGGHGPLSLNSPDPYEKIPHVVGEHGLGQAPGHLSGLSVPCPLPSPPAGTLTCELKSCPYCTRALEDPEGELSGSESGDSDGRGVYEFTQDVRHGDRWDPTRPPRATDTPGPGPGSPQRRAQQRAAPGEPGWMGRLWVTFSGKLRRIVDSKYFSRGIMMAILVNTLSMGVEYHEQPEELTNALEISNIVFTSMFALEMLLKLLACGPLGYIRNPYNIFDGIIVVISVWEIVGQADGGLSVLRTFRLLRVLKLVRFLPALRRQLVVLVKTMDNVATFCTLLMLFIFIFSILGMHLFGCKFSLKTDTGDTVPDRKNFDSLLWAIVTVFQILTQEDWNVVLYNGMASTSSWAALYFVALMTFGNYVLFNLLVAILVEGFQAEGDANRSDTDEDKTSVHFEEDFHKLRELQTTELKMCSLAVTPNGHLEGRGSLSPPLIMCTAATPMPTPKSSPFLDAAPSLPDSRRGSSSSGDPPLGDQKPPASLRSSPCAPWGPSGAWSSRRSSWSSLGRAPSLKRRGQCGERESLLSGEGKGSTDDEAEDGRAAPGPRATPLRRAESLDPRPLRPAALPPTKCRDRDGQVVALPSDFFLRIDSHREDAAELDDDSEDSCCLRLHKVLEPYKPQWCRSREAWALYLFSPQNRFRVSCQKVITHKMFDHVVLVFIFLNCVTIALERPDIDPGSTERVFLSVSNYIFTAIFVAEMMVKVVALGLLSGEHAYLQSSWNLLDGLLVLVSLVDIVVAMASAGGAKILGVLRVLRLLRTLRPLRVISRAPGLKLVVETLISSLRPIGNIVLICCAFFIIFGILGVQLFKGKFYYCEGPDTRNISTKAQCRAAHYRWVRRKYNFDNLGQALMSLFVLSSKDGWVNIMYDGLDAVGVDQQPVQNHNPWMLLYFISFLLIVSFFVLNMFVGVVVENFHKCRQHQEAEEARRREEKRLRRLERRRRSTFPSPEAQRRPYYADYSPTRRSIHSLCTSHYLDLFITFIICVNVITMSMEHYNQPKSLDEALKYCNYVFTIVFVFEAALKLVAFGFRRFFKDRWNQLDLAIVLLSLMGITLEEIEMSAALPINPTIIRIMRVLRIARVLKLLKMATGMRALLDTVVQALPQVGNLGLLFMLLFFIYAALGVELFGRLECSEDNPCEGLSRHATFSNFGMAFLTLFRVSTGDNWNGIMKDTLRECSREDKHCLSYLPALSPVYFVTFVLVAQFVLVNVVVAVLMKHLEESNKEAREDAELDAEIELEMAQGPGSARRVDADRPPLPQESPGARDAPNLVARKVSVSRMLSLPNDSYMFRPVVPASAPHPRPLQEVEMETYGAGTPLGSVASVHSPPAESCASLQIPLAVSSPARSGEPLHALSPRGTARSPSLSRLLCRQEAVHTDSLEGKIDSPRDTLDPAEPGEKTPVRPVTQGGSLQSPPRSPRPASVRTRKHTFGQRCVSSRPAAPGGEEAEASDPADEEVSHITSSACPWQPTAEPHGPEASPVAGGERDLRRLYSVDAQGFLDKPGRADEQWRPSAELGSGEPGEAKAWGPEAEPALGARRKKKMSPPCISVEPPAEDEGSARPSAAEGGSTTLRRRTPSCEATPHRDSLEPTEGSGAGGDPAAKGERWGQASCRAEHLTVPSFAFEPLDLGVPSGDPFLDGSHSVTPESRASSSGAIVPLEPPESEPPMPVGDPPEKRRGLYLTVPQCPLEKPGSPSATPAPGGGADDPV", "experiment": "Whole-cell patch clamp of T-type Ca2+ currents in Cav3.2-stable transfected HEK 293 cells", "format": "cell-based", "procedure": "Certain exemplary embodiments have undergone target identification studies to discover a better officious T-type calcium blocker. The fourteen trifluoromethylated N-benzamide enaminone compounds were synthesized, purified, and structure confirmed using gas chromatography/mass spectroscopy, nuclear magnetic resonance, and elemental analysis. Preliminary in vitro whole cell patch clamp experiments were performed to assess the inhibitory effects of several target analogs on voltage-activated calcium currents in human embryonic kidney (HEK-293) cells. Cav3.2 transfected HEK 293 cells were treated with 50 μM of test compounds and compared to the control group (none pretreated HEK 293 cells).\nas §1\nas §2, with “To assess current densities, cell size was normalized by dividing current amplitudes by cell capacitance. Cell capacitance was determined by integrating the transient current evoked by a 10-mV voltage step from a holding potential of −60 mV.” left out"}, "human Cav3.3": {"target": "T2, human Cav3.3 (Homo sapiens, UniProt Q9P0X4)", "T2 construct": "host or cells: HEK 293", "T2 sequence (Q9P0X4 whole entry)": "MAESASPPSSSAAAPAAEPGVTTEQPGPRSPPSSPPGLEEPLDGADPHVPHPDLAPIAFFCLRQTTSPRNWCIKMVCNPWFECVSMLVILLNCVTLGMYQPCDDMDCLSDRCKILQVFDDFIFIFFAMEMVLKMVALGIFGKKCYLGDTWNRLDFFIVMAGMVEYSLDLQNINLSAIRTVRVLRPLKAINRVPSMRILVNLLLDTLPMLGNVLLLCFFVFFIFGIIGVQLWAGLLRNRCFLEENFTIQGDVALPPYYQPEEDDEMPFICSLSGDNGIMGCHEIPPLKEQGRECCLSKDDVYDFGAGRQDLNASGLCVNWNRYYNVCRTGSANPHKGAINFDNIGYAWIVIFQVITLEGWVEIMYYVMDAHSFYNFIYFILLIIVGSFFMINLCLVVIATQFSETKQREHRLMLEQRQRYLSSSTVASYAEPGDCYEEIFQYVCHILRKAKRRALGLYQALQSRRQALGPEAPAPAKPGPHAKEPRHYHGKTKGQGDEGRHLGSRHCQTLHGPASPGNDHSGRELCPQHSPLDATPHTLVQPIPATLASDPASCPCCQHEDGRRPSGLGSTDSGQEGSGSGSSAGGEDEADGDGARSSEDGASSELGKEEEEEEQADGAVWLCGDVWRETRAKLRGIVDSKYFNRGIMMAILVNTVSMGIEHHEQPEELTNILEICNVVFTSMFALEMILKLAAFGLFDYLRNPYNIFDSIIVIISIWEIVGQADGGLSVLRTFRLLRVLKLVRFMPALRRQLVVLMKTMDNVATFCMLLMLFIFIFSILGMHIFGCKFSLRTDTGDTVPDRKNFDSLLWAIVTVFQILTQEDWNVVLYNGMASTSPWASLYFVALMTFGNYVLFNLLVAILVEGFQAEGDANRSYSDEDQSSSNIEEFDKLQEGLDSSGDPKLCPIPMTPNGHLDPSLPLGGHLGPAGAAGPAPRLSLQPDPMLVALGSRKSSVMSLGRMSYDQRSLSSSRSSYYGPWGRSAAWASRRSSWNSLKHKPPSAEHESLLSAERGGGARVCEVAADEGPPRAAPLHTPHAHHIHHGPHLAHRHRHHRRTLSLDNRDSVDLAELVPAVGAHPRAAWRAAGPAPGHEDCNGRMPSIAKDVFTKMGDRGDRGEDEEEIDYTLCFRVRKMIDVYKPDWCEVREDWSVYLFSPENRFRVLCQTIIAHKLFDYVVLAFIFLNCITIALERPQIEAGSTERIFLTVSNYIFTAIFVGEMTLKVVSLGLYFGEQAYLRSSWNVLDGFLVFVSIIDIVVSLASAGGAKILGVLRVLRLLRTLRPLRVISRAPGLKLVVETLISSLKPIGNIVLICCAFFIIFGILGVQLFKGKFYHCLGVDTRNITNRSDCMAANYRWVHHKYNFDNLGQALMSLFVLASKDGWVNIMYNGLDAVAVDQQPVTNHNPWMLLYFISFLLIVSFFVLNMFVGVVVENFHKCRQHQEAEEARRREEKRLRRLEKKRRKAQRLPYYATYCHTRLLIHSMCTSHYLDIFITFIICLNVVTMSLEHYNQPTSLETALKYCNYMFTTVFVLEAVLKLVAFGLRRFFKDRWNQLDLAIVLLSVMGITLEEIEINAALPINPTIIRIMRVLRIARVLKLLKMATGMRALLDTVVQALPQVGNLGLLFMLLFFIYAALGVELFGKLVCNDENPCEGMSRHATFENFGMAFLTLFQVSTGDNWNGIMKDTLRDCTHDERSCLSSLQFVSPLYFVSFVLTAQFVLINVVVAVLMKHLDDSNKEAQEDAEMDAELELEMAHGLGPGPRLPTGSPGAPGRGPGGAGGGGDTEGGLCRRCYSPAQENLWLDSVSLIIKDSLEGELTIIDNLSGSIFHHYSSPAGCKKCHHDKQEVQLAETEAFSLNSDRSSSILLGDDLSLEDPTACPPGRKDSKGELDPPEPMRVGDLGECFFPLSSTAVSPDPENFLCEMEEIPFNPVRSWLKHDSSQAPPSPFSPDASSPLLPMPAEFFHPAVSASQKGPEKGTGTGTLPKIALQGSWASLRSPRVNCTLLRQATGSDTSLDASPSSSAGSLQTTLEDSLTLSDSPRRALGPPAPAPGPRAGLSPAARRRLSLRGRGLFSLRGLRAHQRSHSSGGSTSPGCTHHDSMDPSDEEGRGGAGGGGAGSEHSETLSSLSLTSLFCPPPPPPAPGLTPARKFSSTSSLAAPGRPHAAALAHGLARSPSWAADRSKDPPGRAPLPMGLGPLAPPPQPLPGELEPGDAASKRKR", "experiment": "Whole-cell patch clamp of T-type Ca2+ currents in Cav3.3-stable transfected HEK 293 cells", "format": "cell-based", "procedure": "as §1, §2, §3"}, "[2]": {"settings": "50 μM, differentiated ND7/23 cells"}, "[3]": {"settings": "50 μM, HEK 293-Cav3.2 cells, vs non-treated cells"}, "[4]": {"settings": "increasing concentrations 1-50 μM"}}, "note": "“Also recorded” adds a separate entry of the source."}
{"molecule": "CC1CC(=O)C=C(NC(=O)c2ccccc2C(F)(F)F)C1", "note": "(centres unmarked) [IAA61, N-(5-methyl-3-oxocyclohex-1-en-1-yl)-2-(trifluoromethyl) benzamide]", "values": [{"measurement": "Effect on T-type Ca2+ current density", "setting": "T-type Ca^2+ channels; [2]", "result": "no effect"}, {"measurement": "Effect on Na+ current density", "setting": "[1]", "result": "no noticeable effect"}]}
{"molecule": "Cc1cc(C)cc(C(=O)NC2=CC(=O)CC(C)C2)c1", "note": "(centres unmarked) [RHB59, 3,5-dimethyl-N-(5-methyl-3-oxocyclohex-1-en-1-yl)benzamide]", "values": [{"measurement": "Effect on T-type Ca2+ current density", "setting": "human Cav3.2; [3]", "result": "No inhibitory effect"}]}
{"molecule": "O=C1C=C(NC(=O)c2cc(C(F)(F)F)cc(C(F)(F)F)c2)CC(C(F)(F)F)C1", "note": "(centres unmarked) [RHB-77, N-(3-oxo-5-(trifluoromethyl)cyclohex-1-en-1-yl)-3,5-bis(trifluoromethyl)benzamide]", "values": [{"measurement": "inhibition at 50 µM", "setting": "human Cav3.2; HEK293, 50 μM, Cav3.2 transfected HEK 293 cells, read-out: Inhibition of calcium currents on T-type calcium channels", "result": 90, "unit": "%"}, {"measurement": "Concentration dependence of the inhibition of T-type Ca2+ currents", "setting": "human Cav3.2; HEK 293-Cav3.2 cells", "result": "significant inhibition of T-type calcium currents in a concentration-dependent manner"}]}
{"molecule": "O=C1C=C(NC(=O)c2cc(F)cc(F)c2)CC(C(F)(F)F)C1", "note": "(centres unmarked) [RHB107]", "values": [{"measurement": "Effect on whole cell capacitance", "setting": "human Cav3.2; 50 μM, HEK 293-Cav3.2 cells", "result": "no significant changes; also recorded: no effect on cell capacitance"}]}
{"molecule": "CC1CC(=O)C=C(NC(=O)c2ccccc2F)C1", "note": "(centres unmarked) [IAB67, 2-fluoro-N-(5-methyl-3-oxocyclohex-1-en-1-yl) benzamide]", "values": [{"measurement": "Effect on T-type Ca2+ current density", "setting": "T-type Ca^2+ channels; [2]", "result": "None of the tested compounds has any effect"}, {"measurement": "Effect on T-type Ca2+ current density", "setting": "T-type Ca^2+ channels; 50 μM, differentiated ND7/23 cells, listed as IAB65", "result": "no effect on Ca^2+ current densities"}]}
{"molecule": "O=C1C=C(NC(=O)c2cccc(C(F)(F)F)c2F)CC(C(F)(F)F)C1", "note": "(centres unmarked) [RHB103]", "values": [{"measurement": "Effect on T-type Ca2+ current density", "setting": "human Cav3.2; [3]", "result": "No inhibitory effect"}]}
{"molecule": "CC1CC(=O)C=C(NC(=O)c2cccc(C(F)(F)F)c2)C1", "note": "(centres unmarked) [IAB15, N-(5-methyl-3-oxocyclohex-1-en-1-yl)-3-(trifluoromethyl) benzamide]", "values": [{"measurement": "Effect on T-type Ca2+ current density", "setting": "T-type Ca^2+ channels; [2]", "result": "significant reduction"}, {"measurement": "Effect on Na+ current density", "setting": "[1]", "result": "no noticeable effect; also recorded: no effect on the Na^+ current densities"}]}
{"molecule": "CC(C)C1CC(=O)C=C(NC(=O)c2ccc(C(F)(F)F)cc2)C1", "note": "(centres unmarked) [IAC41, N-(5-isopropyl-3-oxocyclohex-1-en-1-yl)-4-(trifluoromethyl) benzamide]", "values": [{"measurement": "Effect on T-type Ca2+ current density", "setting": "T-type Ca^2+ channels; [2]", "result": "None of the tested compounds has any effect; also recorded: no effect on Ca^2+ current densities"}]}
{"molecule": "CC1CC(=O)C=C(NC(=O)c2cc(C(F)(F)F)cc(C(F)(F)F)c2)C1", "note": "(centres unmarked) [IAA65, N-(5-methyl-3-oxocyclohex-1-en-1-yl)-3,5-bis(trifluoromethyl) benzamide]", "values": [{"measurement": "Effect on activation time constant (τ)", "setting": "human Cav3.2; 10 μM", "result": "no significant changes; also recorded: no effect"}, {"measurement": "Effect on inactivation time constant (τ)", "setting": "human Cav3.2; 10 μM", "result": "no effect on the inactivation τ"}, {"measurement": "Effect on peak current", "setting": "human Cav3.2; 10 μM", "result": "significant reduction"}, {"measurement": "Shift in voltage-dependence of T-type Ca2+ currents", "setting": "human Cav3.2; 10 μM", "result": "without significant changes; also recorded: no significant shift"}, {"measurement": "Shift of the steady-state inactivation curve", "setting": "human Cav3.2; 10 μM", "result": "leftward shift"}, {"measurement": "Effect on cell capacitance", "setting": "human Cav3.2; 1-50 μM", "result": "no effect on cell capacitance"}, {"measurement": "Effect on T-type Ca2+ current density", "setting": "human Cav3.2; [4]", "result": "significant reduction"}, {"measurement": "V1/2 of steady-state inactivation (Boltzmann fit)", "setting": "human Cav3.2; treated cells, 10 μM", "result": "−70.2±1.0", "unit": "mV"}, {"measurement": "Effect on activation time constant (τ)", "setting": "human Cav3.3; 10 μM", "result": "rightward shift; also recorded: significant increase"}, {"measurement": "Effect on inactivation time constant (τ)", "setting": "human Cav3.3; 10 μM", "result": "significant reduction"}, {"measurement": "Effect on steady-state inactivation", "setting": "human Cav3.3; 10 μM", "result": "no effect"}, {"measurement": "Effect on voltage-current relationship", "setting": "human Cav3.3; 10 μM", "result": "considerable reduction"}, {"measurement": "Shift in voltage-dependence of T-type Ca2+ currents", "setting": "human Cav3.3; 10 μM", "result": "no significant shift"}, {"measurement": "Effect on cell capacitance", "setting": "human Cav3.3; 1-50 μM", "result": "no effect on call capacitance; also recorded: no effect on cell capacitance"}, {"measurement": "Effect on T-type Ca2+ current density", "setting": "human Cav3.3; [4]", "result": "significant reduction"}, {"measurement": "V1/2 of steady-state inactivation (Boltzmann fit)", "setting": "human Cav3.3; treated cells, 10 μM", "result": "−58.5±2.1", "unit": "mV"}, {"measurement": "Reversal of the effect on T-type Ca2+ current density after drug washout", "setting": "T-type Ca^2+ channels; 50 μM, 5 min washout", "result": "no significant recovery; also recorded: did not reverse the drug effect"}, {"measurement": "Effect on T-type Ca2+ current density", "setting": "T-type Ca^2+ channels; [2]", "result": "significant reduction"}, {"measurement": "IC50", "setting": "T-type Ca^2+ channels; differentiated ND7/23 cells, read-out: IC50 on T-type Ca2+ current densities", "result": 10.6, "unit": "µM"}, {"measurement": "Effect on Na+ current density", "setting": "[1]", "result": "no noticeable effect; also recorded: no effect on the Na^+ current densities"}]}
{"molecule": "CC1CC(=O)C=C(NC(=O)c2cccc(OC(F)(F)F)c2)C1", "note": "(centres unmarked) [ABA58]", "values": [{"measurement": "Effect on whole cell capacitance", "setting": "human Cav3.2; 50 μM, HEK 293-Cav3.2 cells", "result": "no significant changes; also recorded: no effect on cell capacitance"}]}
{"molecule": "CC1CC(=O)C=C(NC(=O)c2ccc(C(F)(F)F)cc2)C1", "note": "(centres unmarked) [THA40, N-(5-methyl-3-oxocyclohex-1-en-1-yl)-4-(trifluoromethyl) benzamide]", "values": [{"measurement": "Effect on T-type Ca2+ current density", "setting": "T-type Ca^2+ channels; [2]", "result": "None of the tested compounds has any effect"}, {"measurement": "Effect on T-type Ca2+ current density", "setting": "T-type Ca^2+ channels; 50 μM, differentiated ND7/23 cells, listed as TTA40", "result": "no effect on Ca^2+ current densities"}]}
